pEC50: −log10 of the molar value.
Columns and labels:
[1] = target: T1, Potassium channel subfamily K member 2 (Homo sapiens) (UniProt O95069); assay: Activation of human TREK1 at 30 uM by thallium flux mobilization assay relative to control
T1 sequence (whole entry): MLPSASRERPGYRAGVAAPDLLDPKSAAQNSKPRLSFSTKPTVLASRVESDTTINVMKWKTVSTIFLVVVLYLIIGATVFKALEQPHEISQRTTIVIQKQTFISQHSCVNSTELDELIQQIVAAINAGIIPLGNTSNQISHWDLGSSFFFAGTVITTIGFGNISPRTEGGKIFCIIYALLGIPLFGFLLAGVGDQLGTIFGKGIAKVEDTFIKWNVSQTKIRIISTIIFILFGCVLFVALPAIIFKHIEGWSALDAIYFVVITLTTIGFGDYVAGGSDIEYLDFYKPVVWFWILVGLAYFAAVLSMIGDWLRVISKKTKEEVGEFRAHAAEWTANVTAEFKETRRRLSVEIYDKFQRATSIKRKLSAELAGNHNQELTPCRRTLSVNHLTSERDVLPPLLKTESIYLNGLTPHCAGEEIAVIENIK

[2] = target: T2, Potassium channel subfamily K member 10 (Homo sapiens) (UniProt P57789); assay: Activation of human TREK2 at 30 uM by thallium flux mobilization assay relative to control
T2 sequence (whole entry): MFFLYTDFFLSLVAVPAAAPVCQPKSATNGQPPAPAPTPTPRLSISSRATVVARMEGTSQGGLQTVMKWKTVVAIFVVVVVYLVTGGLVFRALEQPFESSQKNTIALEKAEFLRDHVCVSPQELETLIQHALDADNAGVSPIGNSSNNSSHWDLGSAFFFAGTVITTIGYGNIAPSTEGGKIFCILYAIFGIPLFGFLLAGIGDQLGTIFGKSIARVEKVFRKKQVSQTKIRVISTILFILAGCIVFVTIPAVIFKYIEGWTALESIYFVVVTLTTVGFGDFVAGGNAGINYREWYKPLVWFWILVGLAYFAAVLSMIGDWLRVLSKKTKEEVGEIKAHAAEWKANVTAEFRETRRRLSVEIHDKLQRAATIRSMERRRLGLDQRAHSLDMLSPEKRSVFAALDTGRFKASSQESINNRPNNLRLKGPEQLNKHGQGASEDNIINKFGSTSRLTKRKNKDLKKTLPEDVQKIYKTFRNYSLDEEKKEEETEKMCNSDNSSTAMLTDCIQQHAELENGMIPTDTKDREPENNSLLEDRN

[3] = target: T3, Potassium channel subfamily K member 10 (Homo sapiens, UniProt P57789); assay: Activation of human TREK2 by thallium flux mobilization assay
T3 sequence (P57789 whole entry): T2 sequence (whole entry)

[4] = target: T4, Potassium channel subfamily K member 2 (Homo sapiens, UniProt O95069); assay: Activation of human TREK1 by thallium flux mobilization assay
T4 sequence (O95069 whole entry): T1 sequence (whole entry)

[5] = target: T1, Potassium channel subfamily K member 2 (Homo sapiens); assay: Activation of human TREK1 at 10 uM by thallium flux mobilization assay relative to control
[6] = target: T2, Potassium channel subfamily K member 10 (Homo sapiens); assay: Activation of human TREK2 at 10 uM by thallium flux mobilization assay relative to control
[7] = Fraction unbound in human plasma; type: ADME, cell-free
[8] = Fraction unbound in rat plasma; type: ADME, cell-free
[9] = Fraction unbound in mouse plasma; type: ADME, cell-free

| Activity [1] [%] | Activity [2] [%] | pEC50 [3] | Activity ([1]; filed as activator) [%] | pEC50 [4] | SMILES | also measured |
| --- | --- | --- | --- | --- | --- | --- |
| -6 | 0 |  |  |  | O=C(Nc1nccnc1C(=O)O)c1ccc(SC(F)(F)F)cc1 |  |
| 5 | 2 |  |  |  | O=C(O)Cc1ccccc1NC(=O)c1cccc(C(F)(F)F)c1 |  |
|  |  | 5.25 | 57 | 5.34 | O=C(Nc1ccc(OC(F)(F)F)cc1C(=O)O)c1ccc(SC(F)(F)F)cc1 | Activity ([2]; filed as activator): 60% |
| 28 | 12 |  |  |  | O=C(Nc1ccccc1C(=O)O)c1ccc(C(F)(F)F)cc1 |  |
| 0 | -1 |  |  |  | O=C(O)Cc1cccc(NC(=O)c2ccc(C(F)(F)F)cc2)c1 |  |
|  |  |  |  |  | O=C(Nc1ccccc1-c1nnn[nH]1)c1cccc2c1CCCC2 | Activity [5]: 6%; Activity [6]: 2% |
|  |  | < 4.52 | 54 | 5.02 | O=C(Nc1ccc(F)cc1C(=O)O)c1ccc(SC(F)(F)F)cc1 | Activity ([2]; filed as activator): 43% |
|  | 27 | 4.55 | 52 | 4.78 | COc1ccc(C(=O)O)c(NC(=O)c2ccc(SC(F)(F)F)cc2)c1 |  |
|  |  | 5.17 | 69 | 5.42 | O=C(Nc1ccc(Cl)cc1C(=O)O)c1ccc(SC(F)(F)F)cc1 | Activity ([2]; filed as activator): 76% |
|  |  | 5.12 | 66 | 5.36 | O=C(Nc1cc(Cl)ccc1C(=O)O)c1ccc(SC(F)(F)F)cc1 | Activity ([2]; filed as activator): 73% |
| 1 | 1 |  |  |  | O=C(Nc1cnncc1C(=O)O)c1ccc(SC(F)(F)F)cc1 |  |
|  | 17 | 5.30 | 50 | 4.89 | O=C(Nc1ccccc1C(=O)O)c1ccc(SC(F)(F)F)cc1 | fraction unbound [7]: 0.026; fraction unbound [8]: 0.04; fraction unbound [9]: 0.081 |
| 40 | 17 |  |  |  | O=C(Nc1ccccc1C(=O)O)c1cccc(SC(F)(F)F)c1 |  |
| -4 | 1 |  |  |  | O=C(Nc1ncccc1C(=O)O)c1ccc(SC(F)(F)F)cc1 |  |
|  |  |  |  |  | O=C(Nc1ccc2c(c1)CCCC2)c1ccccc1-c1nnn[nH]1 | Activity [5]: 0%; Activity [6]: 1% |
| 4 | -1 |  |  |  | O=C(O)Cc1ccccc1NC(=O)c1ccccc1C(F)(F)F |  |
|  | 31 | < 4.52 | 50 | 4.69 | COc1ccc(NC(=O)c2ccc(SC(F)(F)F)cc2)c(C(=O)O)c1 |  |
| 2 | 0 |  |  |  | O=C(O)Cc1cccc(NC(=O)c2ccccc2C(F)(F)F)c1 |  |
